Data as given in patent US12552790B2, “Positive modulators of the muscarinic acetylcholine receptor M4” (Vanderbilt University, priority 2023, dated 2026).

What was measured:
[1] = target: T1, Human M4 (Homo sapiens, UniProt P08173); assay: M4 cell-based functional assay, calcium mobilization, potentiation of ACh EC20; conditions: for Emax at 30 µM: % ACh maximum at 30 μM; for EC50: CHO-K1 hM4-Gqi5 cells, calcium flux, ACh EC20
T1 construct: expressed in transfected cells
T1 sequence (P08173 1-479): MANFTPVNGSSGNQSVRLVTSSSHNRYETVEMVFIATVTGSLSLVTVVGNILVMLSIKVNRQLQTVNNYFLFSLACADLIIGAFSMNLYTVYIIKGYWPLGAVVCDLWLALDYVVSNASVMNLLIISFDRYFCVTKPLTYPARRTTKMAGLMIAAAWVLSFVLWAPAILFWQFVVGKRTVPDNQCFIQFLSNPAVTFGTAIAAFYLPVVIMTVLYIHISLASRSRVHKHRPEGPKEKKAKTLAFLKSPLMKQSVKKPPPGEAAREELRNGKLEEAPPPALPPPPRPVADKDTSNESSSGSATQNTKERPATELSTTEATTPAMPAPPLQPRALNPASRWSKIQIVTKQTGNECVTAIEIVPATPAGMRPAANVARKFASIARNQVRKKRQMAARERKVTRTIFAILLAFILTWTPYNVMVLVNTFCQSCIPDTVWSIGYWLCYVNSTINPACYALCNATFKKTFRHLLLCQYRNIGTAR
Protocol: Human and rat M4 cDNAs, along with the chimeric G protein Gqi5, were transfected into Chinese hamster ovary (CHO-K1) cells purchased from the American Type Culture Collection using Lipofectamine2000. The transfected cells were subjected to selection antbiotic treatment to generate stable cell lines; G418 sulfate (1 mg/ml) for selecting M4 expressing cells and Hygromycin B (500 μg/mL) for selecting Gqi5 expressing cells. The resulting polyclones were further screened to obtain monoclones of hM4-Gqi5 and rM4-Gqi5 for compound screening assay. Stable monoclone cells were maintained in Ham's F-12 medium containing 10% heat-inactivated fetal bovine serum (FBS), 1× Antibiotic/Antimycotic, 20 mM HEPES, 500 μg/mL G418 sulfate, and 200 μg/mL Hygromycin B in 37° C. humidified incubators in the presence of 5% CO2.
(§1) The high throughput assay was employed to measure receptor-induced mobilization of intracellular calcium to determine compound activity. Test compound was added to cells expressing the muscarinic receptors that were loaded with calcium sensitive fluorescent dye. After a ˜2.5 minute incubation period, a submaximal (EC20) concentration of acetylcholine was added, and the response measured. This kinetic assay allows for simultaneous screening and potency determination of multiple pharmacological modes of action including agonist and potentiator activity. CHO-K1 cells stably expressing muscarinic receptors were plated in growth medium lacking G418 and hygromycin at 15,000 cells/20 μL/well in Greiner 384-well black-walled, tissue culture (TC)-treated, clear-bottom plates (Greiner Bio-One). Cells were incubated overnight at 37° C. and 5% CO2. The next day, calcium assay buffer (Hank's balanced salt solution (HBSS), 20 mM HEPES, 2.5 mM Probenecid, 4.16 mM sodium bicarbonate (Sigma-Aldrich, St. Louis, MO)) was prepared to dilute compounds, agonists, and Fluo-4-acetomethoxyester (Fluo-4-AM), fluorescent calcium indicator dye. Compounds were serially diluted 1:3 into 10 point concentration response curves in DMSO using the Bravo Liquid Handler (Agilent, Santa Clara, CA), transferred to a 384 well daughter plates using an Echo acoustic liquid handler (Beckman Coulter, Indianapolis, Indiana), and diluted in assay Buffer to a 2× final concentration. The agonist plates were prepared using acetylcholine (ACh, Sigma-Aldrich, St. Louis, MO) concentrations for the EC20 and ECMAX responses by diluting in assay buffer to a 5× final concentration. The 2× dye solution (2.3 μM) was prepared by mixing a 2.3 mM Fluo-4-AM stock in DMSO with 10% (w/v) pluronic acid F-127 in a 1:1 ratio in assay buffer. Using a microplate washer (BioTek, Winooski, VT), cells were washed with assay buffer for 3 times to remove medium. After the final wash, 20 μL of assay buffer remained in the cell plates. Immediately, 20 μL of the 2× dye solution (final 1.15 μM) was added to each well of the cell plate using a Multidrop Combi dispenser (Thermo Fisher, Waltham, MA). After cells were incubated with the dye solutions for 45 min at 37° C. in the presence of 5% CO2, the dye solutions were removed and replaced with assay buffer using a microplate washer, leaving 20 μL of assay buffer in the cell plate.
The prepared compound, agonist, and cell plates were placed inside the Functional Drug Screening System uCell (FDSS uCell, Hamamatsu, Japan) to measure the calcium flux. The triple add protocol was used to measure Ca kinetics; Compound, ACh for EC20, and ACh for EC80 adds in an order. Briefly, after establishment of a fluorescence baseline for 2 seconds (excitation, 480 nm; emission, 530 nm), first add occurred by adding 20 μL of test compound to the cells, and the response was measured for 140 seconds. This is followed by second add; 10 μL (5×) of an EC20 concentration of ACh agonist was added to the cells, and the response of the cells was measured for 125 seconds. […]

[2] = target: T2, Human M2 (Homo sapiens, UniProt P08172); assay: M2 cell-based functional assay, calcium mobilization (selectivity); conditions: for Emax at 30 µM: % ACh maximum at 30 μM; for EC50 / Human M2 EC50: M2 cell-based functional assay, calcium flux
T2 construct: expressed in transfected cells; host or cells: CHO-K1
T2 sequence (P08172 1-466): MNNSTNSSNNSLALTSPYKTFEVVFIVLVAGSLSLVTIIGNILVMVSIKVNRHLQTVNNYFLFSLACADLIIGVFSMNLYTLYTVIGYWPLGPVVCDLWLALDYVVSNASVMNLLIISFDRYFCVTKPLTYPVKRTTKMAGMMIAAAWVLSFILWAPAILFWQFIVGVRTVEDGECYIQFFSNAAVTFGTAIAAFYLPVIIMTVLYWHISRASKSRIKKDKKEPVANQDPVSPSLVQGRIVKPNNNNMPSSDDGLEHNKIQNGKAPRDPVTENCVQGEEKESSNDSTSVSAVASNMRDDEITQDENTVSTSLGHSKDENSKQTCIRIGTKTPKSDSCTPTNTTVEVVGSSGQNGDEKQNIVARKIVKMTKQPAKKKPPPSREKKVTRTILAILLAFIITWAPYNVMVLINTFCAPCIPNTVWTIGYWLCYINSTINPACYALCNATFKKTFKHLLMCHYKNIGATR
Protocol: as §1
The prepared compound, agonist, and cell plates were placed inside the Functional Drug Screening System uCell (FDSS uCell, Hamamatsu, Japan) to measure the calcium flux. The triple add protocol was used to measure Ca kinetics; Compound, ACh for EC20, and ACh for EC80 adds in an order. Briefly, after establishment of a fluorescence baseline for 2 seconds (excitation, 480 nm; emission, 530 nm), first add occurred by adding 20 μL of test compound to the cells, and the response was measured for 140 seconds. This is followed by second add; 10 μL (5×) of an EC20 concentration of ACh agonist was added to the cells, and the response of the cells was measured for 125 seconds. Immediately, the third add occurred by adding […] (5×) of an EC80 concentration of ACh and the response of the cells was measured for 90 seconds. Acetylcholine-mediated maximum response (ECmax) was measured by adding 1 mM ACh as third add in the control wells. DMSO vehicle was added to the control wells in the first add for assessing ACh EC20, EC80, and ECmax responses. Calcium fluorescence was recorded as fold over basal fluorescence and raw data were normalized to the maximal response to ACh agonist. Agonist activity was analyzed as a concentration-dependent increase in calcium mobilization upon compound addition. Positive allosteric modulator activity was analyzed as a concentration-dependent increase in the EC20 acetylcholine response. Antagonist activity was analyzed as a concentration-dependent decrease in the EC80 acetylcholine response. […]

Row | SMILES | Emax at 30 µM [1] [%] | EC50 [1] [nM] | Emax at 30 µM [2] [%] | EC50 [2] [nM] | Human M2 EC50 [2]
1 | [2H]C1([2H])Oc2ccc(OC3CCN(c4nc5nn([C@@H]6CCOC6)c(=O)n5cc4C)CC3)cc2OC1([2H])[2H] [Compound A4, (R)-7-(4-((2,3-dihydrobenzo[b][1,4]dioxin-6-yl-2,2,3,3-d4)oxy)piperidin-1-yl)-6-methyl-2-(tetrahydrofuran-3-yl)-[1,2,4]triazolo[4,3-a]pyrimidin-3(2H)-one] | 88 | 9 | 68 | 1380 | 
2 | [2H]C1([2H])Oc2ccc(OC3CCN(c4nc5nn([C@H]6CCOC6)c(=O)n5cc4C)CC3)cc2OC1([2H])[2H] [Compound A5, (S)-7-(4-((2,3-dihydrobenzo[b][1,4]dioxin-6-yl-2,2,3,3-d4)oxy)piperidin-1-yl)-6-methyl-2-(tetrahydrofuran-3-yl)-[1,2,4]triazolo[4,3-a]pyrimidin-3(2H)-one] | 87 | 12 | 66 | 2870 | 
3 | [2H]C1(Oc2ccc3c(c2)OCCO3)CCN(c2nc3c(cc2C)C(=O)NC3)CC1 [Compound 10, 2-(4-((2,3-dihydrobenzo[b][1,4]dioxin-6-yl)oxy)piperidin-1-yl-4-d)-3-methyl-6,7-dihydro-5H-pyrrolo[3,4-b]pyridin-5-one] | 93 | 3 | 60 | 330 | 
4 | [2H]C1([2H])Oc2ccc(OC3CCN(c4nc5nn(C(C)COC)c(=O)n5cc4C)CC3)cc2OC1([2H])[2H] (stereo not shown) [Compound A7, 7-(4-((2,3-dihydrobenzo[b][1,4]dioxin-6-yl-2,2,3,3-d4)oxy)piperidin-1-yl)-2-(1-methoxypropan-2-yl)-6-methyl-[1,2,4]triazolo[4,3-a]pyrimidin-3(2H)-one] | 89 | 53 | 47 | > 10000 | 
5 | [2H]C([2H])([2H])n1nc2nc(N3CCC(Oc4ccc5c(c4)OC([2H])([2H])C([2H])([2H])O5)CC3)c(C)c(C)n2c1=O [Compound A18, 7-(4-((2,3-dihydrobenzo[b][1,4]dioxin-6-yl-2,2,3,3-d4)oxy)piperidin-1-yl)-5,6-dimethyl-2-(methyl-d3)-[1,2,4]triazolo[4,3-a]pyrimidin-3(2H)-one] | 98 | 3 | 53 | 1110 | 
6 | [2H]C1([2H])Oc2ccc(OC3CCN(c4nc5nn(C)c(=O)n5c(C5CC5)c4C)CC3)cc2OC1([2H])[2H] [Compound A12, 5-cyclopropyl-7-(4-((2,3-dihydrobenzo[b][1,4]dioxin-6-yl-2,2,3,3-d4)oxy)piperidin-1-yl)-2,6-dimethyl-[1,2,4]triazolo[4,3-a]pyrimidin-3(2H)-one] | 103 | 32 |  |  | Inactive
7 | [2H]C1([2H])Oc2ccc(OC3CCN(c4nc5n[nH]c(=O)n5c(C)c4C)CC3)cc2OC1([2H])[2H] [Compound A9, 7-(4-((2,3-dihydrobenzo[b][1,4]dioxin-6-yl-2,2,3,3-d4)oxy)piperidin-1-yl)-5,6-dimethyl-[1,2,4]triazolo[4,3-a]pyrimidin-3(2H)-one] | 79 | 5 | 45 | 839 | 
8 | [2H]C1([2H])Oc2ccc(OC3CCN(c4nc5c(c(C)c4C)C(=O)NC5)CC3)cc2OC1([2H])[2H] [Compound 13, 2-(4-((2,3-dihydrobenzo[b][1,4]dioxin-6-yl-2,2,3,3-d4)oxy)piperidin-1-yl)-3,4-dimethyl-6,7-dihydro-5H-pyrrolo[3,4-b]pyridin-5-one] | 101 | 4 |  |  | inactive
9 | [2H]C1([2H])Oc2ccc(OC3CCN(c4nc5c(cc4C)C(=O)N(C4CC4)C5)CC3)cc2OC1([2H])[2H] [Compound 6, 6-cyclopropyl-2-(4-((2,3-dihydrobenzo[b][1,4]dioxin-6-yl-2,2,3,3-d4)oxy)piperidin-1-yl)-3-methyl-6,7-dihydro-5H-pyrrolo[3,4-b]pyridin-5-one] | 78 | 9 | 64 | 867 | 
